Results as given in patent publication US8173631B2, “Cyclic amine compounds” (Daiichi Sankyo Company, Limited, priority 2008, dated 2012).
pIC50: −log10 of the molar value. One block for each compound: values may come before it.

What was measured:
PTH secretion = experiment: Evaluation of PTH secretion promoting activity in a rat (blood serum PTH after oral administration); format: in vivo; settings: female F344 rat, oral 3 mg/5 mL/kg, Mean ± S.D., n = 3
Description: Evaluation of PTH Secretion Promoting Activity in a Rat
A 10 to 14-week old female F344 rat (Charles River Japan, Inc.) fasted overnight was anesthetized using ether, and blood serum before the administration was prepared by drawing blood from the jugular vein of the animal. Subsequently, the test compound was orally administered at a dose of 3 mg/5 mL/kg using a solvent (0.5% aqueous methyl cellulose solution containing 5% DMA). Blood was drawn from the jugular vein under ether anesthesia at 5, 15, 30, 60, 120, and 240 minutes after the administration of the test compound, and the blood serum was prepared. The blood serum PTH concentration was measured using rat Intact PTH ELISA kit (manufactured by Immutopics, Inc.).

[1] = target: T1, human calcium-sensing receptor (CaSR) (Homo sapiens, UniProt P41180); experiment: Inhibitory activity on calcium-sensing receptor (CaSR), intracellular calcium increase as indicator (FLIPR, CHO/hCaSR); format: cell-based; settings: CHO cells stably expressing human CaSR; inhibition of intracellular Ca increase induced by extracellular CaCl2
T1 construct: expressed in transfected cells
T1 sequence (P41180 20-1078): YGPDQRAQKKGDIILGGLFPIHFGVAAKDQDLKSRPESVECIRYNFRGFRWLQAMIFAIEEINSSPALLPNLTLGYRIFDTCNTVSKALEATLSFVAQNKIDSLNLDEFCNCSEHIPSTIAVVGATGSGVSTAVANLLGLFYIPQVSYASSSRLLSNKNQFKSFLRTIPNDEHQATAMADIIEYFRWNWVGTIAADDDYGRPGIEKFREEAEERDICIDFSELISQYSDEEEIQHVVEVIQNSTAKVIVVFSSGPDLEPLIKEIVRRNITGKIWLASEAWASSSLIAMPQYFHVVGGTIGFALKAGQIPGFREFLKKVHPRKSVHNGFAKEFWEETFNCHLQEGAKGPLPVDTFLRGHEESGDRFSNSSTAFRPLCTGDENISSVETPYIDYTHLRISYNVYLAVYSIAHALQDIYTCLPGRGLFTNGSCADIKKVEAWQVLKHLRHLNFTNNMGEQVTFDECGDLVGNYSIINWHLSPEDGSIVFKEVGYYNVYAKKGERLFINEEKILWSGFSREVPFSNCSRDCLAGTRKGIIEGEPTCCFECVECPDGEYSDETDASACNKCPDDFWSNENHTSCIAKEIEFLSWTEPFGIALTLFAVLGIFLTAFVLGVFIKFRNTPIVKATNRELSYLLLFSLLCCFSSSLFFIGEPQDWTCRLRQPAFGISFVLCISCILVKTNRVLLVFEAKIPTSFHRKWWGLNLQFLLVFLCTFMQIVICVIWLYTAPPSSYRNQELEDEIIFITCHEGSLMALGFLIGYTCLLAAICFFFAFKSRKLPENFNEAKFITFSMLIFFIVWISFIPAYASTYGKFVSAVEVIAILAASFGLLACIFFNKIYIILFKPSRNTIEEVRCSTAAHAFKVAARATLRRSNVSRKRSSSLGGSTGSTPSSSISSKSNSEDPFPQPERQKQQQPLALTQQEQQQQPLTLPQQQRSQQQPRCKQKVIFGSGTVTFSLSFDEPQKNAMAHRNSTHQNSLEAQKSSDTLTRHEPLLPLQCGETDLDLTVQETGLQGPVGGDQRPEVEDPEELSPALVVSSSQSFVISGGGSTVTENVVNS
In short: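 CHO/hCaSR cells loaded with Calcium 3 dye in HEPES/HBSS (Ca/Mg-free, 2.5 mM probenecid, pH 7.4), then preincubated 15 min with compound (final 1.05–10,000 nM). Challenged with CaCl2 ([…]) and fluorescence followed by FLIPR. IC50 derived from the peak-minus-baseline fluorescence increase.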

SMILES: Cc1ccc(C[C@@H]2CCN2C[C@@H](O)CO[C@H](C)c2ccccc2CCC(=O)O)cc1F [Example 14, 3-{2-[(1R)-1-({(2R)-3-[(2R)-2-(3-Fluoro-4-methylbenzyl)azetidin-1-yl]-2-hydroxypropyl}oxy)ethyl]phenyl}propanoic acid]
- Blood Serum PTH (1-84) Concentration, 0 minute (PTH secretion): 53.3 ± 4.4 pg/mL
- Blood Serum PTH (1-84) Concentration, After 5 minutes (PTH secretion): 195.9 ± 16.9 pg/mL
- Blood Serum PTH (1-84) Concentration, After 15 minutes (PTH secretion): 429.0 ± 111.0 pg/mL
- Blood Serum PTH (1-84) Concentration, After 30 minutes (PTH secretion): 198.2 ± 61.0 pg/mL
- Blood Serum PTH (1-84) Concentration, After 60 minutes (PTH secretion): 41.8 ± 5.8 pg/mL
- Blood Serum PTH (1-84) Concentration, After 120 minutes (PTH secretion): 42.0 ± 8.5 pg/mL
- Blood Serum PTH (1-84) Concentration, After 240 minutes (PTH secretion): 64.2 ± 6.3 pg/mL
- pIC50 [1]: ≥ 5.43

SMILES: C[C@@H](OC[C@H](O)CN1CCC[C@H]1Cc1ccc(Cl)c(F)c1)c1cc(F)ccc1CCC(=O)O [Example 130]
- pIC50 [1]: ≥ 5.48

SMILES: C[C@@H](OC[C@H](O)CN1CCC[C@H]1Cc1ccc(F)c(F)c1)c1ccccc1CCC(=O)O [Example 38]
- pIC50 [1]: ≥ 5.45

SMILES: Cc1ccc(C[C@@H]2CCCN2C[C@@H](O)COC(C)c2c(CCC(=O)O)ccc(F)c2F)cc1F (some centres unmarked) [Example 34]
- pIC50 [1]: ≥ 5.48

SMILES: Cc1ccc([C@@H](C)OC[C@H](O)CN2CCC[C@H]2Cc2ccc(Cl)c(Cl)c2)c(CCC(=O)O)c1 [Example 97]
- pIC50 [1]: ≥ 5.49

SMILES: Cc1cccc([C@@H](C)OC[C@H](O)CN2CCC[C@H]2Cc2ccc(Cl)c(F)c2)c1CCC(=O)O [Example 170]
- pIC50 [1]: ≥ 5.48

Further lines, with some results ahead:

- pIC50 [1]: ≥ 5.50
SMILES: Cc1ccc(C[C@@H]2CCCN2C[C@@H](O)CO[C@H](C)c2cccc(C(F)(F)F)c2CCC(=O)O)cc1F [Example 9, 3-{2-[(1R)-1-({(2R)-3-[(2S)-2-(3-Fluoro-4-methylbenzyl)pyrrolidin-1-yl]-2-hydroxypropyl}oxy)ethyl]-6-(trifluoromethyl)phenyl}propanoic acid]
- Blood Serum PTH (1-84) Concentration, 0 minute (PTH secretion): 87.9 ± 25.5 pg/mL
- Blood Serum PTH (1-84) Concentration, After 5 minutes (PTH secretion): 117.2 ± 32.4 pg/mL
- Blood Serum PTH (1-84) Concentration, After 15 minutes (PTH secretion): 476.5 ± 99.7 pg/mL
- Blood Serum PTH (1-84) Concentration, After 30 minutes (PTH secretion): 235.6 ± 99.1 pg/mL
- Blood Serum PTH (1-84) Concentration, After 60 minutes (PTH secretion): 49.1 ± 16.9 pg/mL
- Blood Serum PTH (1-84) Concentration, After 120 minutes (PTH secretion): 33.6 ± 5.1 pg/mL
- Blood Serum PTH (1-84) Concentration, After 240 minutes (PTH secretion): 117.2 ± 27.7 pg/mL

- pIC50 [1]: ≥ 5.51
SMILES: C[C@@H](OC[C@H](O)CN1CCC[C@H]1Cc1ccc(Cl)c(Cl)c1)c1ccc(Cl)cc1CCC(=O)O [Example 160]

- pIC50 [1]: ≥ 5.50
SMILES: CCc1cc(C[C@@H]2CCCN2C[C@@H](O)CO[C@H](CC)c2cccc(F)c2CCC(=O)O)ccc1Cl [Example 109]
